Laboratory results reported in PubChem BioAssay AID623973 (The Scripps Research Institute Molecular Screening Center, 2012).
The source made the active and inactive calls. The rule behind the calls is not given here.

Target: Hepatitis C virus NS3 helicase (ATPase activity)
Test: HCV NS3 ATP hydrolysis blockers – biochemical, absorbance, mechanism study for HCV NS3 helicase inhibitor project, late-stage follow-up (AID 623973)
Settings: absorbance phosphate detection

Structure (SMILES) | IC50
Cc1ccc2nc(-c3ccc4nc(-c5ccc(NC(=O)Nc6ccccc6)cc5)sc4c3)sc2c1S(=O)(=O)O | 70 µM
Cc1cc(C(O)(c2ccc(Nc3ccccc3)cc2)c2ccc(Nc3ccc(S(=O)(=O)O)cc3)cc2)ccc1N (stereo unspecified) | > 200 µM (inactive)
Cc1ccc2nc(-c3ccc4nc(-c5ccc(NC(=O)c6ccc7nc(-c8ccc(N)cc8)sc7c6)cc5)sc4c3)sc2c1S(=O)(=O)O | > 200 µM (inactive)
Cc1ccc2nc(-c3ccc4nc(-c5ccc(NC(=O)c6ccc(Br)cc6)cc5)sc4c3)sc2c1S(=O)(=O)O | 50 µM
Cc1ccc2nc(-c3ccc(NC(=O)c4ccc(NC(=O)Nc5ccccc5)cc4)cc3)sc2c1S(=O)(=O)O | > 200 µM (inactive)
Cc1ccc2nc(-c3ccc4nc(-c5ccc(NC(=O)c6ccc(F)cc6)cc5)sc4c3)sc2c1S(=O)(=O)O | 67 µM
COc1cccc2c(=O)c3cc(Cl)cc(C(=O)Nc4cc(Cl)ccn4)c3[nH]c12 | > 200 µM (inactive)
Cc1ccc2nc(-c3ccc4nc(-c5ccc(N)cc5)sc4c3)sc2c1S(=O)(=O)O | > 200 µM (inactive)
Cc1ccc2nc(-c3ccc4nc(-c5ccc(NC(=O)c6ccc7ccccc7c6)cc5)sc4c3)sc2c1S(=O)(=O)O | 30 µM
Cc1ccc2nc(-c3ccc4nc(-c5ccc(NC(=O)c6ccc(N)cc6)cc5)sc4c3)sc2c1S(=O)(=O)O | inactive
Cc1ccc2c(sc(-c3ccc4c(c3)sc(-c3ccc5c(c3)sc(-c3ccc(N(C)C)cc3)[n+]5C)[n+]4C)[n+]2C)c1S(=O)(=O)O (tested in a mixture with another compound) | > 200 µM (inactive)
Cc1cc2sc(-c3ccc(N)cc3)nc2cc1S(=O)(=O)O | > 200 µM (inactive)
Cc1ccc2nc(-c3ccc4nc(-c5ccc(NC(=O)c6cc(C(F)(F)F)cc(C(F)(F)F)c6)cc5)sc4c3)sc2c1S(=O)(=O)O | inactive
Cc1ccc(C(=O)Nc2ccc(-c3nc4ccc(-c5nc6ccc(C)c(S(=O)(=O)O)c6s5)cc4s3)cc2)cc1 | 33 µM
COc1ccc(C(=O)Nc2ccc(-c3nc4ccc(-c5nc6ccc(C)c(S(=O)(=O)O)c6s5)cc4s3)cc2)cc1 | 50 µM
CN1CCN(Cc2cc(CN3CCN(C)CC3)c(O)c(=O)c(CN3CCN(C)CC3)c2)CC1 | > 200 µM (inactive)
Cc1ccc2nc(-c3ccc4nc(-c5ccc(NC(=O)Nc6ccc(Cl)cc6)cc5)sc4c3)sc2c1S(=O)(=O)O | 86 µM
CCOc1ccc2c(NNC(=O)c3cnccn3)c3c(nc2c1)CCCC3 | > 200 µM (inactive)
Cc1ccc2nc(-c3ccc4nc(-c5ccc6nc(-c7ccc8nc(-c9ccc(N)cc9)sc8c7)sc6c5)sc4c3)sc2c1S(=O)(=O)O | 43 µM
Cc1ccc2nc(-c3ccc4nc(-c5ccc(NC(=O)c6cc(C(F)(F)F)ccc6F)cc5)sc4c3)sc2c1S(=O)(=O)O | 61 µM
COc1ccc(NC(=O)Nc2ccc(-c3nc4ccc(-c5nc6ccc(C)c(S(=O)(=O)O)c6s5)cc4s3)cc2)cc1 | 73 µM

Other lines, results leading:

IC50 | Structure (SMILES)
> 200 µM (inactive) | Cc1ccc2nc(-c3ccc4nc(-c5ccc(NC(=O)c6cccnc6)cc5)sc4c3)sc2c1S(=O)(=O)O
> 200 µM (inactive) | Cc1cc2sc(-c3ccc4nc(-c5ccc(N)cc5)sc4c3)nc2cc1S(=O)(=O)O
> 200 µM (inactive) | Cc1ccc2nc(-c3ccc(N)cc3)sc2c1S(=O)(=O)O
> 200 µM (inactive) | CCN(CC)c1ccc(-c2nc3ccc(C)c(S(=O)(=O)O)c3s2)cc1
74 µM | Cc1ccc2nc(-c3ccc4nc(-c5ccc(NC(=O)c6cccc(Cl)c6)cc5)sc4c3)sc2c1S(=O)(=O)O
> 200 µM (inactive) | CCN(CC)c1ccc(-c2nc3ccc(-c4nc5ccc(C)c(S(=O)(=O)O)c5s4)cc3s2)cc1
> 200 µM (inactive) | O=C(CCCCCCC(=O)Nc1ccc(-c2nc3ccccc3[nH]2)cc1)Nc1ccc(-c2nc3ccccc3[nH]2)cc1
44 µM | Cc1ccc2nc(-c3ccc4nc(-c5ccc(NC(=O)c6ccc(Cl)c(Cl)c6)cc5)sc4c3)sc2c1S(=O)(=O)O
inactive | Cc1ccc2nc(-c3ccc4nc(-c5ccc(NC(=O)c6ccc(C(C)(C)C)cc6)cc5)sc4c3)sc2c1S(=O)(=O)O
24 µM | Cc1ccc2nc(-c3ccc4nc(-c5ccc(NC(=O)c6ccc(C(F)(F)F)cc6)cc5)sc4c3)sc2c1S(=O)(=O)O
